Source: patent US20240252688A1, “COMPOSITIONS AND METHODS FOR ENHANCED PROTEIN PRODUCTION” (HDT Bio Corp., priority 2021, published 2024)
Where a name gives a salt, the structure may show the parent alone.

Legend:
IFIT2 = assay: Single-point screen: IFIT2 activation (Lucia luciferase, QUANTI-Luc); type: cell-based, human; conditions: A549-Dual cells, compound 50 μM pre-treatment, NP-1+mRNA 20 ng/well + IFN; for fold induction at 50 µM: Homo sapiens, 24 h, read-out: fold IFIT over IFN
Source text: (§1) The cells produce secreted embryonic alkaline phosphatase (SEAP), under the control of the interferon beta […] minimal promoter fused to five NF-κB binding sites. The cells also secrete lucia luciferase under the control of IFIT2 promoter.

A549-Dual cells [1] = assay: Single-point kinase inhibitor library screen: nLuc expression from NP-1+mRNA-nLuc in IFN-treated cells; type: cell-based, human; conditions: compound 50 μM pre-treatment, NP-1+mRNA 20 ng/well + IFN; for fold induction at 50 µM: Homo sapiens, read-out: fold nLuc over RNA + IFN
Description: as §1
To measure protein expression from mRNA, which is the primary readout for compound down selection, mRNA encoding a secreted version of nanoluciferase (mRNA-nLuc) was used. Protein expression was measured via a luminometer using standard techniques.
As additional criterion, expression in compound treated cells was compared relative to mRNA-transfected cells without IFN (“RNA only”) (data not shown).
A library of small molecule kinase inhibitors was screened for the ability to enhance expression of mRNA-encoded genes when co-delivered with mRNA.

NF-κB = assay: Single-point screen: NFκB activation (SEAP reporter); type: cell-based, human; conditions: A549-Dual cells, compound 50 μM pre-treatment, NP-1+mRNA 20 ng/well + IFN; for fold induction at 50 µM: Homo sapiens, 24 h, read-out: fold NFkB over IFN
Source text: as §1

A549-Dual cells [2] = assay: Single-point screen: cell viability by CellTiter-Glo; conditions: A549-Dual cells incubated overnight with compound at 50 μM, then NP-1+mRNA 20 ng/well + IFN 1:50
Description: Finally, cell lysates were assayed with the CellTiter-GLO® assay (Promega) to obtain a luminescent-based measure of cell viability. In summary, the readouts from the high throughput screen included the primary measure of nLuc protein expression and three secondary readouts: IFIT, NF-κB and cell viability.
For each assay, A549-dual cells were plated at a seeding density of about 5×10^4 cells per well. Cells were incubated overnight with compounds at 50 microMolar (μM) in 1% v/v dimethyl sulfoxide (DMSO). For control wells, 1% DMSO was added to each well. After about 24 hours, the culture medium was removed, and cells were transfected with NP-1+mRNA at 20 ng/mRNA/well in Opti-MEM® media (Thermofisher). Interferon (IFN) was diluted to 1:50 in all test wells except for the RNA only wells and media only wells. Anti-IFN was diluted 1:1000 in “RNA+anti-IFN+IFN” wells. Cells were incubated for 4 hours, and culture medium was added to the Opti-MEM® medium. After 24 hours, assay supernatants were collected and analyzed for nLuc expression, IFIT2 (qLuc), and NFκB (qBLUE-SEAP™, InvivoGen) activation. Cells were then lysed, and cell viability was determined by CellTiter-Glo® (Promega) assay.

SMILES	fold induction at 50 µM (IFIT2)	fold induction at 50 µM (A549-Dual cells [1])	fold induction at 50 µM (NF-κB)	fold IFIT over IFN (IFIT2) [fold]	fold nLuc over RNA + IFN (A549-Dual cells [1]) [fold]	fold NFkB over IFN (NF-κB) [fold]	% viability (A549-Dual cells [2]) [%]
CN1CC[C@H](c2c(O)cc(O)c3c(=O)cc(-c4ccc(C(F)(F)F)cc4Cl)oc23)[C@H]1CO [(2S,3R)-Voruciclib (hydrochloride), 2-[2-chloro-4-(trifluoromethyl)phenyl]-5,7-dihydroxy-8-[(2S,3R)-2-(hydroxymethyl)-1-methylpyrrolidin-3-yl]chromen-4-one; hydrochloride]	1.09	113	0.26				
Cc1[nH]ncc1-c1cc2nc([C@H]3CC4CCN3CC4)[nH]c(=O)c2s1 [(R)-Simurosertib]				1.84	200.44	1.33	86
COc1ccc(-c2c[nH]c3nccc(-c4ccsc4)c23)c(OC)c1 [ARN-3236, 3-(2,4-dimethoxyphenyl)-4-thiophen-3-yl-1-pyrrolo[2,3-b]pyridine]				1.61	322.60	0.41	33
CCN1CCN(Cc2ccc(NC(=O)Nc3ccc(Oc4cc(NC)ncn4)cc3)cc2C(F)(F)F)CC1 [AST 487, 1-[4-[(4-ethylpiperazin-1-yl)methyl]-3-(trifluoromethyl)phenyl]-3-[4-[6-(methylamino)pyrimidin-4-yl]oxyphenyl]urea]	0.19	183	0.14				32
Cl.O=C(NC1CCNCC1)c1n[nH]cc1NC(=O)c1c(Cl)cccc1Cl [AT7519 (Hydrochloride), 4-[(2,6-dichlorobenzoyl)amino]-N-piperidin-4-yl-1H-pyrazole-5-carboxamide; hydrochloride]	0.88	123	0.43				42
Cc1ncc(-c2ccnc(Nc3ccc(S(C)(=O)=O)cc3)n2)n1C(C)C [AZD-5438, 4-(1-isopropyl-2-methyl-1H-imidazol-5-yl)-N-(4-(methylsulfonyl)phenyl)pyrimidin-2-amine]	2.39	353	0.38				46
Cc1cc(Nc2cc(Cl)nc(Oc3ccc([N+](=O)[O-])cc3)n2)n[nH]1 [Autophinib, 6-chloro-NV-(5-methyl-1H-pyrazol-3-yl)-2-(4-nitrophenoxy)pyrindin-4-amine]				1.09	128.89	0.78	49
Cc1nc2c(NCc3cccc(S(C)(=O)=O)c3)nccn2c1-c1ccc(O)c(F)c1 [BF738735, 2-fluoro-4-[2-methyl-8-[(3-methylsulfonylphenyl)methylamino]imidazo[1,2-a]pyrazin-3-yl]phenol]	0.37	239	0.62				93
Cc1cnc(-c2cnc(NCCNc3ccc(C#N)cn3)nc2-c2ccc(Cl)cc2Cl)[nH]1 [CHIR-99021 (monohydrochloride), 6-[2-[[4-(2,4-dichlorophenyl)-5-(5-methyl-1H-imidazol-2-yl)pyrimidin-2-yl]amino]ethylamino]pyridine-3-carbonitrile]	0.35	116	0.71				
COc1cc(Nc2ncc3ccn(-c4cccc(CCC#N)c4)c3n2)cc(OC)c1OC [Casein Kinase II Inhibitor IV, 3-[3-[2-(3,4,5-trimethoxyanilino)pyrrolo[2,3-d]pyrimidin-7-yl]phenyl]propanenitrile]	0.79	126	0.46				18
Oc1cccc(Nc2ncc(F)c(Nc3cccc(O)c3)n2)c1 [Compound R112, 3-[[5-fluoro-2-(3-hydroxyanilino)pyrimidin-4-yl]amino]phenol]	1.33	521	1.16				76
COCCOc1ccc(-c2cn(-c3ccccc3)c3nc[nH]c(=O)c23)cc1 [DMX-5804, 5-[4-(2-methoxyethoxy)phenyl]-7-phenyl-3H-pyrrolo[2,3-d]pyrimidin-4-one]	0.4	267	1.35				92
O=C1Nc2ccccc2/C1=C/c1ccccn1 [GSK-3 inhibitor 1]				0.65	225.93	1.00	90
CN(c1ccc(NC(=O)Nc2ccc(OC(F)(F)F)cc2)cc1)c1ccnc(Nc2cccc(S(N)(=O)=O)c2)n1 [GW806742X (hydrochloride), 1-[4-[methyl-[2-(3-sulfamoylanilino)pyrimidin-4-yl]amino]phenyl]-3-[4-(trifluoromethoxy)phenyl]urea]	3.93	842	0.91				41
C[C@H](Nc1cc(-c2cnn(C)c2)cc(Nc2cnccn2)n1)c1ccc(F)cc1.Cl [Ilginatinib hydrochloride, 6-N-[(1S)-1-(4-fluorophenyl)ethyl]-4-(1-methylpyrazol-4-yl)-2-N-pyrazin-2-ylpyridine-2,6-diamine; hydrochloride]	3.17		1.39		484.10		
C[C@H](Nc1cc(-c2cnn(C)c2)cc(Nc2cnccn2)n1)c1ccc(F)cc1 [Ilginatinib, 6-N-[(1S)-1-(4-fluorophenyl)ethyl]-4-(1-methylpyrazol-4-yl)-2-N-pyrazin-2-ylpyridine-2,6-diamine]	1.89		1.12		115.95		
C[C@@H](Oc1ccc2[nH]nc(/C=C/c3cnn(CCO)c3)c2c1)c1c(Cl)cncc1Cl [LY2874455, 2-[4-[(E)-2-[5-[(1R)-1-(3,5-dichloropyridin-4-yl)ethoxy]-1H-indazol-3-yl]ethenyl]pyrazol-1-yl]ethanol]	0.09	150	0.3				58
Cn1nc(C(C)(C)C)cc1NC(=O)Nc1ccc(Oc2ccncc2)cc1 [MAPK13-IN-1, 1-(5-tert-buty-2-methylpyrazol-3-yl)-3-(4-pyridin-4-yloxyphenyl)urea]				1.93	207.89	0.66	59
Cc1cc(O)c(-c2ccc([C@@H](C)CN)cc2)c2c1[nH]c(=O)c1sccc12 [OTS514, 9-[4-[(2R)-1-aminopropan-2-yl]phenyl]-8-hydroxy-6-methyl-5H-thieno[2,3-c]quinolin-4-one]	0.4	349	0.35				66
C[C@@]1(O)CCC[C@H]1n1c(=O)c(C(F)F)cc2cnc(NC3CCN(S(C)(=O)=O)CC3)nc21 [PF-06873600, 6-(difluoromethyl)-8-[(1R,2R)-2-hydroxy-2-methylcyclopentyl]-2-[(1-methylsulfonylpiperidin-4-yl)amino]pyrido[2,3-d]pyrimidin-7-one]	1.08	120	0.83				55
Cn1nccc1Nc1nccc(-c2ccn([C@H](CO)c3ccc(Cl)c(F)c3)c(=O)c2)n1 [Ravoxertinib hydrochloride, 1-[(1S)-1-(4-chloro-3-fluorophenyl)-2-hydroxyethyl]-4-[2-[(2-methylpyrazol-3-yl)amino]pyrimidin-4-yl]pyridin-2-one]	0.24	162	1.17				96
COc1ccc(CCNCc2ccc(OCc3ccc(Cl)nc3)c(OC)c2)cc1OC [SBE13 (Hydrochloride)]				0.32	179.07	0.73	105
CC[C@H](CO)Nc1nc(NCc2ccccc2)c2ncn(C(C)C)c2n1 [Seliciclib, (2R)-2-[[6-(benzylamino)-9-propan-2-ylpurin-2-yl]amino]butan-1-ol]	1.32	118	0.55				45
Cc1cc(F)c(C(=O)Nc2cccc(-c3nncn3C(C)C)n2)cc1-n1cnc(C2CC2)c1 [Selonsertib, 5-(4-cycloproplirnidazol-1-yl)-2-fluoro-4-methyl-N-[6-(4-propan-2-yl-1,2,4-triazol-3-yl)pyridin-2-yl]benzamide]	1.43	112	0.9				
CN1CC[C@@H](c2c(O)cc(O)c3c(=O)cc(-c4ccc(C(F)(F)F)cc4Cl)oc23)[C@@H]1CO [Voruciclib (hydrochloride), 2-[2-chloro-4-(trifluoromethyl)phenyl]-5,7-dihydroxy-8-[(2R,3S)-2-(hydroxymethyl)-1-methylpyrrolidin-3-yl]chromen-4-one]	0.8	274	0.63				
